How the values were obtained:
Type in all cases: biochemical
[1] = biological target: PKC alpha kinase (Homo sapiens, UniProt P17252); test: PKC alpha kinase inhibition, coupled-enzyme NADH absorbance assay (Ki); details: 130 μM ATP, 4.5 nM PKC alpha, 30° C.; read-out: Ki PKC alpha
Description: An assay buffer solution was prepared which consisted of 100 mM HEPES (pH 7.5), 10 mM MgCl2, 25 mM NaCl, 0.1 mM EDTA, 100 μM CaCl2 and 0.01% Brij. […] To 16 μL of this enzyme buffer, in a 384 well plate, was added 1 μL of VRT stock solution in DMSO. The mixture was allowed to equilibrate for 10 mins at 30° C. The enzyme reaction was initiated by the addition of 16 μL stock ATP solution prepared in assay buffer to a final assay concentration of 130 μM. Initial rate data was determined from the rate of change of absorbance at 340 nm (corresponding to stoichiometric consumption of NADH) using a Molecular Devices Spectramax plate reader (Sunnyvale, Calif.) over 15 mins at 30° C. […] Ki values were calculated from initial rate data by non-linear regression using the Prism software package (Prism 4.0a, Graphpad Software, San Diego, Calif.).

[2] = biological target: PKC delta kinase (Homo sapiens, UniProt Q05655); test: PKC delta kinase inhibition, coupled-enzyme NADH absorbance assay (Ki); details: 150 μM ATP, 46 nM PKC delta, 30° C.; read-out: Ki PKC delta
Description: (§1) An assay buffer solution was prepared which consisted of 100 mM HEPES (pH 7.5), 10 mM MgCl2, 25 mM NaCl, 0.1 mM EDTA and 0.01% Brij. […] To 16 μL of this enzyme buffer, in a 384 well plate, was added 1 μL of VRT stock solution in DMSO. The mixture was allowed to equilibrate for 10 mins at 30° C. […] Ki values were calculated from initial rate data by non-linear regression using the Prism software package (Prism 4.0a, Graphpad Software, San Diego, Calif.).

[3] = biological target: PKC theta kinase (Homo sapiens, UniProt Q04759); test: PKC theta kinase inhibition, coupled-enzyme NADH absorbance assay (Ki); details: 240 μM ATP, 18 nM PKC theta, 30° C.; read-out: Ki PKC theta
Description: as §1, with “To 60” for “To 16”, “added 2” for “added 1”

Chain of PKC theta kinase (Q04759 whole entry): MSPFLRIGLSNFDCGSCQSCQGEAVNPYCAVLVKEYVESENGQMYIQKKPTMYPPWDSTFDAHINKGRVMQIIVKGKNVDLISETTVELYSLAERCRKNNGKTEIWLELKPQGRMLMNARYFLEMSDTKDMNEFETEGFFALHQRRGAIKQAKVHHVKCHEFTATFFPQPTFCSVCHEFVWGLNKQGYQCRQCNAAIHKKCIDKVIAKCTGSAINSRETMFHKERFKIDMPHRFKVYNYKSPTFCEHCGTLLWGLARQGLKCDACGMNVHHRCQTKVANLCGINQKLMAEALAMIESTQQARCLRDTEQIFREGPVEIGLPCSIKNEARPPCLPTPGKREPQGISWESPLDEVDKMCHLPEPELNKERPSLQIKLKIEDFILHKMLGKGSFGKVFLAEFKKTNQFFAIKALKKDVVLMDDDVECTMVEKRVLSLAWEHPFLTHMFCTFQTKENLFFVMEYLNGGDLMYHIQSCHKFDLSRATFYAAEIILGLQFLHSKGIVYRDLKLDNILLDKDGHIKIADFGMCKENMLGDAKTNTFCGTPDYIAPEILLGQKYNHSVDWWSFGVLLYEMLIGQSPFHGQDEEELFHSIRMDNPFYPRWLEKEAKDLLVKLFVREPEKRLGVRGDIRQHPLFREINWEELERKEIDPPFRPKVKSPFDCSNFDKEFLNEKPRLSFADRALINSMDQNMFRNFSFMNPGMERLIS
Chain of PKC delta kinase (Q05655 whole entry): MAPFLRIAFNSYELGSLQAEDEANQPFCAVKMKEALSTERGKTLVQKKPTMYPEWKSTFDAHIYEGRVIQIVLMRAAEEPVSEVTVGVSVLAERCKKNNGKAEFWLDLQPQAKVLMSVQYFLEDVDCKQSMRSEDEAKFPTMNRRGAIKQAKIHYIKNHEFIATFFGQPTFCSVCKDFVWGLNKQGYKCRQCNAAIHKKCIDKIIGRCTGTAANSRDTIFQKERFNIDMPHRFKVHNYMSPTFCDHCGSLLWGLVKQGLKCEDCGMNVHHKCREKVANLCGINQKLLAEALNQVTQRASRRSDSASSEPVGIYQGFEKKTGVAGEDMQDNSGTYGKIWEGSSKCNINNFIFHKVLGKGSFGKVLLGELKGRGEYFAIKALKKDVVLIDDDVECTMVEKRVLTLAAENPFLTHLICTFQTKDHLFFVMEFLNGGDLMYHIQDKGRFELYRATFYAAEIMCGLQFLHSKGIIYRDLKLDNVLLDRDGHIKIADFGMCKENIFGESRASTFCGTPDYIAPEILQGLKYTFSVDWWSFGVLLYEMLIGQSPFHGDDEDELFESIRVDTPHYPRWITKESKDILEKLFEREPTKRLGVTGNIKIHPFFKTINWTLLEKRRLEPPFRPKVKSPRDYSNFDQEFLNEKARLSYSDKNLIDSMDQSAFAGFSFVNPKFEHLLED

Compound	Ki [1] [µM]	Ki [2] [µM]	Ki [3] [µM]
COCCC(C)(CN)c1cccc(-c2ccnc3[nH]ncc23)c1 (stereo not drawn) [Compound 146]	< 2.8	< 0.5	< 0.05
Cc1cc(-c2ccnc3[nH]ncc23)cc(C2(CN)CNC(=O)O2)c1 (stereo not drawn) [Compound 310]	< 2.8	> 1.2	< 0.05
N#CC1(c2cccc(-c3ccnc4[nH]nc(C(F)(F)F)c34)c2)CC1 [Compound 273]	< 0.5	< 0.5	< 0.05
NCC1(c2cccc(-c3ccnc4[nH]ncc34)c2)CCC1 [Compound 49]	< 2.8	< 0.5	< 0.05
NCc1cccc(-c2ccnc3[nH]nc(C4CC4)c23)c1 [Compound 269]	> 1.2	> 1.2	> 0.7
C=CCC1(c2cc(C)cc(-c3ccnc4[nH]ncc34)c2)CN(C)C(=O)O1 (stereo not drawn) [Compound 326]	> 1.2	> 1.2	< 0.5
COC(CN)c1cc(C)cc(-c2ccnc3[nH]nc(C(F)(F)F)c23)c1 (stereo not drawn) [Compound 297]	< 0.5	< 2.8	< 0.05
CCc1cc(-c2ccnc3[nH]nc(C(F)(F)F)c23)cc(C(C)(CC)CN)c1 (stereo not drawn) [Compound 271]	< 0.5	< 0.5	< 0.05
NC(CC1CCCCC1)c1cccc(-c2ccnc3[nH]nc(C(F)(F)F)c23)c1 (stereo not drawn) [Compound 298]	> 1.2	> 1.2	> 0.7
NCC1(c2cccc(-c3ccnc4[nH]ncc34)c2)COC1 [Compound 233]	> 1.2	< 2.8	< 0.5
NCC1(c2cccc(-c3ccnc4[nH]nc(C(F)(F)F)c34)c2)COC1 [Compound 305, (3-(3-(3-(trifluoromethyl)-1H-pyrazolo[3,4-b]pyridin-4-yl)phenyl)oxetan-3-yl)methanamine]	< 2.8	< 0.5	< 0.05
CCC1(c2cc(C)cc(-c3ccnc4[nH]nc(C(F)(F)F)c34)c2)CNC(=S)O1 (stereo not drawn) [Compound 296]	< 0.5	> 1.2	< 0.05
NCC1(c2cc(F)cc(-c3ccnc4[nH]nc(C5CC5)c34)c2)CCC1 [Compound 267]	< 0.5	< 0.5	< 0.05
NC(CCC1CCCC1)c1cccc(-c2ccnc3[nH]ncc23)c1 (stereo not drawn) [Compound 253]	> 1.2	> 1.2	> 0.7
CCC(C)(CN)c1cccc(-c2ccnc3[nH]nc(C4CC4)c23)c1 (stereo not drawn) [Compound 266]	< 0.05	< 0.05	< 0.05

Second part, the compound after the results:

Ki [1] [µM]	Ki [2] [µM]	Ki [3] [µM]	Compound
> 2.8	> 2.8	< 0.5	C/C=C/c1cc(-c2ccnc3[nH]ncc23)cc(C(C)(C)C#N)c1 [Compound 54]
< 2.8	> 2.8	< 2.8	CCCC(C)(C#N)c1cccc(-c2ccnc3[nH]ncc23)c1 (stereo not drawn) [Compound 69]
< 2.8	< 2.8	< 2.8	CC(C)CC(C)(C#N)c1cccc(-c2ccnc3[nH]ncc23)c1 (stereo not drawn) [Compound 71]
> 2.8	> 2.8	< 2.8	CC(C#N)(c1cccc(-c2ccnc3[nH]ncc23)c1)C1CCCC1 (stereo not drawn) [Compound 72]
< 2.8	< 0.5	< 0.5	C#Cc1cc(-c2ccnc3[nH]ncc23)cc(C(C)(C)CN)c1 [Compound 40]
< 0.5	< 0.5	< 0.05	CCC(C)(CN)c1cc(CCO)cc(-c2ccnc3[nH]ncc23)c1 (stereo not drawn) [Compound 168]
< 0.5	< 0.5	< 0.05	CCC(C)(CN)c1cc(-c2ccnc3[nH]ncc23)cc(C(F)F)c1 (stereo not drawn) [Compound 162]
< 2.8	> 2.8	< 0.05	CCCc1cc(-c2ccnc3[nH]ncc23)cc(C(C)(C)C#N)c1 [Compound 57]
< 2.8	> 2.8	< 0.05	CCC(C)(C#N)c1cc(CCO)cc(-c2ccnc3[nH]ncc23)c1 (stereo not drawn) [Compound 101]
< 0.5	< 2.8	< 0.05	CCC(C)(CN)c1cc(CCCO)cc(-c2ccnc3[nH]ncc23)c1 (stereo not drawn) [Compound 156]
< 0.5	> 2	< 0.05	CCC(C)(C#N)c1cc(-c2ccnc3[nH]ncc23)cc(C(F)F)c1 (stereo not drawn) [Compound 110]

Source: patent US8173635B2, “Kinase inhibitors” (Vertex Pharmaceuticals Incorporated, priority 2007, dated 2012)
